Test results published in patent US20260007601A1, “IONIZABLE CATIONIC LIPID COMPOUND AND COMPOSITION FOR DELIVERING NUCLEIC ACID AND USE THEREOF” (BEIJING YOUCAREKECHUANG PHARMACEUTICAL TECHNOLOGY CO., LTD., priority 2023, published 2026).
Where “and” joins values, the source holds several entries; their conditions need not be identical. Identical values can stand only once.

Assays:
[1] = Particle size and polydispersity index (PDI) of nanolipid particles, dynamic light scattering; format: physicochemical; details: LNP formulation prepared from the named cationic lipid, 25° C
Description: The particle size and polydispersity index (PDI) were determined by dynamic light scattering method using a Malvern laser particle size analyzer. 10 μL of liposome solution was diluted to 1 mL with RNase-free deionized water and added to a sample pool. Each sample was measured three times. The measurement conditions were: 90° scattering angle, 25° C.

293T cells [2] = test: Fluorescence detection of Fluc-mRNA (cell transfection efficiency of LNP formulations); format: cell-based
Procedure, shortened: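 293T cells at 10,000 per well, adhered overnight, then given LNPs carrying 0.3 μg Fluc-mRNA (cationic:neutral:structured:polymer-conjugated lipid 49:10:39.5:1.5 molar). After 24 h, luciferase signal read with luciferase kit reagents on an IVIS imaging system as transfection efficiency.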

293T cells [3] = test: Cell survival rate assay (CCK-8); format: cell-based
Procedure, shortened: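 293T cells seeded at 10,000 per well and grown overnight, then exposed for 24 h to LNPs (cationic/neutral/structured/PEG lipids 49:10:39.5:1.5) carrying 1.5 μg Fluc-mRNA, or Lipofectamine 3000. Viability read by CCK-8, 1 h incubation, absorbance at 450 nm.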

female BALB/C mice = test: Mouse in vivo imaging of Fluc-mRNA LNP formulations; set-up: average radiation intensity (mRNA expression): unit not given here; details: for average radiation intensity (mRNA expression): 10 μg Fluc-mRNA LNP intramuscularly
Procedure, shortened: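 Female BALB/C mice (4–6 weeks, 17–19 g) received LNP carrying 10 μg Fluc-mRNA intramuscularly. Imaging substrate given intraperitoneally at 6 h, 24 h, 48 h and 7 d; after 5 min free movement, average radiance read by IVIS Spectrum imaging.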

SMILES: CCCCCCCCCCCOC(=O)CCCCCN(CCCCCCCC(=O)OC(CCCCCCCC)CCCCCCCC)CCN(C)CCO [YK-201, heptadecan-9-yl-8-(2-((2-hydroxyethyl)(methylamino))ethyl)(6-oxo-6-((undecanyloxy)hexyl)amino)octanoate]
- PDI [1]: 25.5%
- Particle size [1]: 205 nm
- RLU / cell transfection efficiency, times that of ALC-0315 (293T cells [2]; Fluc-mRNA LNP): 13.27 times
- RLU / cell transfection efficiency, times that of HHMA (293T cells [2]; Fluc-mRNA LNP): 13.56 times
- RLU / cell transfection efficiency, times that of Lipofectamine 3000 (293T cells [2]; Fluc-mRNA LNP): 23.71 times
- RLU / cell transfection efficiency, times that of YK-009 (293T cells [2]; Fluc-mRNA LNP): 5.56 times
- RLU / cell transfection efficiency, times that of compound 21 (293T cells [2]; Fluc-mRNA LNP): 20.04 times
- RLU / cell transfection efficiency, times that of compound 23 (293T cells [2]; Fluc-mRNA LNP): 21.38 times
- cell transfection efficiency, times that of YK-223 (293T cells [2]; Fluc-mRNA LNP): 379.71 times
- cell transfection efficiency, times that of YK-224 (293T cells [2]; Fluc-mRNA LNP): 323.59 times
- cell transfection efficiency, times that of YK-226 (293T cells [2]; Fluc-mRNA LNP): 493.98 times
- fluorescence absorption value / cell transfection efficiency, times that of YK-203 (293T cells [2]; Fluc-mRNA LNP): 7.36 times
- fluorescence absorption value / cell transfection efficiency, times that of YK-204 (293T cells [2]; Fluc-mRNA LNP): 78 times and 78.25 times
- fluorescence absorption value / cell transfection efficiency, times that of YK-205 (293T cells [2]; Fluc-mRNA LNP): 27.68 times
- fluorescence absorption value / cell transfection efficiency, times that of YK-208 (293T cells [2]; Fluc-mRNA LNP): 7.38 times
- fluorescence absorption value / cell transfection efficiency, times that of YK-210 (293T cells [2]; Fluc-mRNA LNP): 6.15 times
- fluorescence absorption value / cell transfection efficiency, times that of YK-211 (293T cells [2]; Fluc-mRNA LNP): 20.79 times
- fluorescence absorption value / cell transfection efficiency, times that of YK-212 (293T cells [2]; Fluc-mRNA LNP): 7.28 times
- fluorescence absorption value / cell transfection efficiency, times that of YK-213 (293T cells [2]; Fluc-mRNA LNP): 20.87 times
- fluorescence absorption value / cell transfection efficiency, times that of YK-214 (293T cells [2]; Fluc-mRNA LNP): 6.22 times
- fluorescence absorption value / cell transfection efficiency, times that of YK-215 (293T cells [2]; Fluc-mRNA LNP): 29.03 times
- fluorescence absorption value / cell transfection efficiency, times that of YK-216 (293T cells [2]; Fluc-mRNA LNP): 12.49 times
- fluorescence absorption value / cell transfection efficiency, times that of YK-217 (293T cells [2]; Fluc-mRNA LNP): 396.42 times
- fluorescence absorption value / cell transfection efficiency, times that of YK-218 (293T cells [2]; Fluc-mRNA LNP): 46.92 times
- fluorescence absorption value / cell transfection efficiency, times that of YK-219 (293T cells [2]; Fluc-mRNA LNP): 18.91 times
- fluorescence absorption value / cell transfection efficiency, times that of YK-220 (293T cells [2]; Fluc-mRNA LNP): 131.62 times
- fluorescence absorption value, times that of YK-222 (293T cells [2]; Fluc-mRNA LNP): 46.97 times
- Relative light unit (RLU) (293T cells [2]; LNP containing 0.3 μg Fluc-mRNA, 24 hours): 28482617 RLU
- Multiples of values that equivalent to YK-201 (293T cells [2]; RLU of YK-201 / RLU of the named lipid): 1.00
- Multiples of values that equivalent to YK-202 (293T cells [2]; RLU of YK-202 / RLU of the named lipid): 1.05
- Ratio relative to SM-102 (293T cells [2]; RLU of the named lipid / RLU of SM-102, times that of SM-102): 17.10
- Cell survival rate (293T cells [3]; LNP containing 1.5 μg Fluc-mRNA, 24 hours, CCK-8): 75.93%
- cell survival rate higher (cytotoxicity reduced) compared with YK-221 (293T cells [3]; difference of rates): 55% and 54.98%
- cell survival rate higher (toxicity lower) than that of YK-204 (293T cells [3]; difference of rates): 30% and 33.36%
- cell survival rate higher (toxicity lower) than that of YK-225 (293T cells [3]; difference of rates): 32.52%
- cell survival rate higher than that of ALC-0315 (293T cells [3]; difference of rates): 25.97%
- cell survival rate higher than that of HHMA (293T cells [3]; difference of rates): 10.37%
- cell survival rate higher than that of Lipofectamine 3000 (293T cells [3]; difference of rates): 52.88%
- cell survival rate higher than that of SM-102 (293T cells [3]; difference of rates): 7.38%
- cell survival rate higher than that of YK-203 (293T cells [3]; difference of rates): 40.37%
- cell survival rate higher than that of YK-205 (293T cells [3]; difference of rates): 17.01%
- cell survival rate higher than that of YK-208 (293T cells [3]; difference of rates): 29.25%
- cell survival rate higher than that of YK-210 (293T cells [3]; difference of rates): 37.55%
- cell survival rate higher than that of YK-211 (293T cells [3]; difference of rates): 23.63%
- cell survival rate higher than that of YK-212 (293T cells [3]; difference of rates): 40.67%
- cell survival rate higher than that of YK-213 (293T cells [3]; difference of rates): 34.49%
- cell survival rate higher than that of YK-214 (293T cells [3]; difference of rates): 50.35% and 50%
- cell survival rate higher than that of YK-215 (293T cells [3]; difference of rates): 31.34%
- cell survival rate higher than that of YK-216 (293T cells [3]; difference of rates): 30.13%
- cell survival rate higher than that of YK-217 (293T cells [3]; difference of rates): 33.66%
- cell survival rate higher than that of YK-219 (293T cells [3]; difference of rates): 17.32%
- cell survival rate higher than that of YK-220 (293T cells [3]; difference of rates): 16.94%
- cell survival rate higher than that of YK-222 (293T cells [3]; difference of rates): 42.18%
- cell survival rate higher than that of YK-223 (293T cells [3]; difference of rates): 39.29%
- cell survival rate higher than that of YK-224 (293T cells [3]; difference of rates): 52.46%
- cell survival rate higher than that of YK-226 (293T cells [3]; difference of rates): 48.03%
- cell survival rate higher than that of compound 21 (293T cells [3]; difference of rates): 6.91%
- cell survival rate higher than that of compound 23 (293T cells [3]; difference of rates): 5.83%
- average radiation intensity, times that of ALC-0315 (female BALB/C mice; 6 h): 3.39 times
- average radiation intensity, times that of HHMA (female BALB/C mice; 6 h): 4.47 times
- average radiation intensity, times that of SM-102 (female BALB/C mice; 6 h): 4.21 times
- average radiation intensity, times that of compound 21 (female BALB/C mice; 6 h): 4.76 times
- average radiation intensity, times that of compound 23 (female BALB/C mice; 6 h): 4.81 times
- mRNA expression level, times that of YK-204 (female BALB/C mice; 6 h): 81.10 times
- mRNA expression level, times that of YK-223 (female BALB/C mice; 6 h): 276.05 times
- average radiation intensity (mRNA expression) (female BALB/C mice; 6 h): 2858500
- expression level, times that of YK-215 (female BALB/C mice; 6 hours): 56.53 times
- expression level, times that of YK-217 (female BALB/C mice; 6 hours): 116.27 times
- average radiation intensity, times that of ALC-0315 (female BALB/C mice; 24 h): 11.11 times
- average radiation intensity, times that of HHMA (female BALB/C mice; 24 h): 18.47 times
- average radiation intensity, times that of SM-102 (female BALB/C mice; 24 h): 17.49 times
- average radiation intensity, times that of compound 21 (female BALB/C mice; 24 h): 18.76 times
- average radiation intensity, times that of compound 23 (female BALB/C mice; 24 h): 18.27 times
- mRNA expression level, times that of YK-204 (female BALB/C mice; 24 h): 387.32 times
- mRNA expression level, times that of YK-223 (female BALB/C mice; 24 h): 1134.20 times
- average radiation intensity (mRNA expression) (female BALB/C mice; 24 h): 2025680
- expression level, times that of YK-215 (female BALB/C mice; 24 hours): 297.24 times
- expression level, times that of YK-217 (female BALB/C mice; 24 hours): 764.41 times
- average radiation intensity, times that of ALC-0315 (female BALB/C mice; 48 h): 19.16 times
- average radiation intensity, times that of HHMA (female BALB/C mice; 48 h): 24.82 times
- average radiation intensity, times that of SM-102 (female BALB/C mice; 48 h): 23.91 times
- average radiation intensity, times that of compound 21 (female BALB/C mice; 48 h): 24.34 times
- average radiation intensity, times that of compound 23 (female BALB/C mice; 48 h): 22.78 times
- mRNA expression level, times that of YK-204 (female BALB/C mice; 48 h): 299.49 times
- mRNA expression level, times that of YK-223 (female BALB/C mice; 48 h): 1077.82 times
- average radiation intensity (mRNA expression) (female BALB/C mice; 48 h): 730760
- expression level, times that of YK-215 (female BALB/C mice; 48 hours): 200.76 times
- expression level, times that of YK-217 (female BALB/C mice; 48 hours): 713.63 times
- average radiation intensity, times that of ALC-0315 (female BALB/C mice; 7 d): 4.58 times
- average radiation intensity, times that of HHMA (female BALB/C mice; 7 d): 5.68 times
- average radiation intensity, times that of SM-102 (female BALB/C mice; 7 d): 5.11 times
- average radiation intensity, times that of compound 21 (female BALB/C mice; 7 d): 4.94 times
- average radiation intensity, times that of compound 23 (female BALB/C mice; 7 d): 5.17 times
- expression level, times that of YK-215 (female BALB/C mice; 7 d): 29.56 times
- expression level, times that of YK-217 (female BALB/C mice; 7 d): 57.65 times
- mRNA expression level, times that of YK-204 (female BALB/C mice; 7 d): 39.99 times
- mRNA expression level, times that of YK-223 (female BALB/C mice; 7 d): 68.53 times
- average radiation intensity (mRNA expression) (female BALB/C mice; 7 d): 30151
- mRNA expression in mice can reach, times that of YK-204 (female BALB/C mice; time point not stated): 380 times
